Like-named read-outs stand apart in the source and are kept apart here.

The conditions of data set [1]: rat, in vivo, po, 72 h. The method, then:
Its chemical formula is Fe(C4 H7 O5)2.2H2 O, molecular weight:362.
Animals: Male Wistar rats were supplied by Experimental Animal Center, Tumor Institute of Heilongjian Province with body weight of 140 g-180 g. The iron-low diet contains iron 0.9 mg/kg.
50 rats were randomly divided into 5 groups of [19] 10 rats each. On this basis of administration of iron-low diet, each group of rats was administered respectively by gavage according to the dosage below:
High dosage group: Fe, 5 mg/kg, ferrous L-threonate, 32.32 mg/kg;
Middle dosage group: Fe, 2.5 mg/kg, ferrous L-threonate, 16.16 mg/kg;
Low dosage group: Fe, 1.0 mg/kg, ferrous L-threonate, 6.46 mg/kg;
Positive drug control group (ferrous sulfate): Fe, 2.5 mg/kg, ferrous sulfate, 12.43 mg/kg;
Negative drug control group (iron-low diet): Fe, 0.9 mg/kg (measured value).
After the end of 7 days feeding normal diet period, rats were supplemented with iron-low diet prepared according to AOAC formula for another 7 days. The 1-3 groups were treatment groups and supplemented with ferrous L-threonate 32.32 mg/kg (5 mgFe/kg, high dose group), 16.16 mg/kg (2.5 mg Fe/kg, middle dose group) and 6.46 mg/kg (1.0 mg Fe/kg, low dose group), respectively. The forth, positive drug control group, was provided with ferrous sulfate 12.43 mg/kg (2.5 mg Fe/kg). The fifth was model control group and was offered with iron-low diet (0.9 mg Fe/kg). Each groups were arranged to take drug one time by I.G (gavage) method per day and in the same time were supplemented with deionized water.
The test was sustained three days. Each rat's excrement was collected, dried at temperature 80-90° C., weighed and ground into 40-60 meshes. About 0.5 to 0.6 gram sample was taken and a mixture of nitric acid and perchloric acid at a ratio of 4:1 was added therein until completion of digestion. The constant volume is 10 ml. The iron content of excrement was determined by atomic absorption method and the iron absorptive rate for each rat can be calculated by the formula listed below. [formula]

Another data set deals with Nutritional IDA Model. Here is the method: 1. […] All drugs were diluted by distilled water.
(2) Nutritional Anemia Model: Male Wistar rats with body weight 43±2.5 g (Animal Center of Beijing Medical University) were randomly divided into 8 groups of 10 rats each, wherein 6 groups were established for the investigation of nutritional anemia and 2 groups were used as normal control group. The rats of these six groups were supplemented with iron-low diet (prepared according to the formula of AOAC, iron content 8.0 mg/kg) and deionized water four weeks to prepare the nutritional IDA model, which also was called hemoglobin exhausting test. Another two groups were designed as normal control groups and were provided with normal diet (obtained from Beijing Medical University) and water during the whole experimental period.
Hemoglobin of each group of rats was measured one time every 7 days. […] Other 6 groups (three for ferrous L-threonate, one for ferrous gluconate, one for mode control and one normal control group) rats were kept under controlled conditions (ambient temperature 23° C., 60% relative humidity, and 10 hours light) in animal feeding room to continue the further test.

The next data set relates to bone marrow cells. Conditions: in vivo.
Another data set concerns mice testicle cells. Particulars: mouse, in vivo.
The conditions of data set [2]: in vivo, po.

Take ferrous L-threonate: the Absorptivity in data set [1] (1 mg/kg) was 59.10 ± 5.01%; in data set [1] (2.5 mg/kg) it was 54.90 ± 4.08%; in data set [1] (5 mg/kg) it was 42.60 ± 1.79%. Further, the “hemochrome content, onset of increase” value in the data set on Nutritional IDA Model (end of 7 days supplementation) is on record as “started to increase at the end of 7 days supplementation”. The “hemochrome content compared with normal control groups” value in the data set with Nutritional IDA Model (rat, in vivo) was “reached nearly the normal levels of normal control groups”. Further, the “parameters investigated compared with ferrous gluconate” value with Nutritional IDA Model (same ferrous dosage) is “better than those of the known drug, ferrous gluconate”. The toxicity grade entry with rat (acute toxicity, rat) is reported as “belongs to the grade of very lower”. In addition, the LD50 in the data set with rat (female rat) stood at 3160 mg/kg; in the data set with rat (male rat) it was 3690 mg/kg. The safety in use result in the data set on rat (rat, in vivo) was “used safely and without toxicity”. In addition, the micronucleus test result in the data set on bone marrow cells was “negative”. For the same substance, the “chromosome aberration test result” value with mice testicle cells is listed as “negative”. For the same substance, the “embryonic toxicity and aberration” value in data set [2] was “did not produce embryonic toxicity and abberation”.

Usually LD50 stands for the dose expected to kill half of the subjects tested. A high value points to a less toxic substance.

These data come from patent US6313170A, “L-threonate ferrous, as well as pharmaceutical composition and use for improving and treating human anemia thereof” (priority 1997, dated 2001).
